Reference: ChEMBL document CHEMBL5550199, “Rational In Silico Design of Selective TMPRSS6 Peptidomimetic Inhibitors via Exploitation of the S2 Subpocket” (J Med Chem, 2024)
In brackets after ≈: the same amount, converted by molar mass. Activity calls are given as the source filed them. The rule behind the calls is not given here.

Columns and labels:
[1] = molecular target: T1, Transmembrane protease serine 6 (Homo sapiens, UniProt Q8IU80); test: Binding affinity to recombinant human TMPRSS6 using Boc-QAR-AMC as substrate assessed as inhibition constant by fluorescence based analysis
T1 sequence (Q8IU80 whole entry): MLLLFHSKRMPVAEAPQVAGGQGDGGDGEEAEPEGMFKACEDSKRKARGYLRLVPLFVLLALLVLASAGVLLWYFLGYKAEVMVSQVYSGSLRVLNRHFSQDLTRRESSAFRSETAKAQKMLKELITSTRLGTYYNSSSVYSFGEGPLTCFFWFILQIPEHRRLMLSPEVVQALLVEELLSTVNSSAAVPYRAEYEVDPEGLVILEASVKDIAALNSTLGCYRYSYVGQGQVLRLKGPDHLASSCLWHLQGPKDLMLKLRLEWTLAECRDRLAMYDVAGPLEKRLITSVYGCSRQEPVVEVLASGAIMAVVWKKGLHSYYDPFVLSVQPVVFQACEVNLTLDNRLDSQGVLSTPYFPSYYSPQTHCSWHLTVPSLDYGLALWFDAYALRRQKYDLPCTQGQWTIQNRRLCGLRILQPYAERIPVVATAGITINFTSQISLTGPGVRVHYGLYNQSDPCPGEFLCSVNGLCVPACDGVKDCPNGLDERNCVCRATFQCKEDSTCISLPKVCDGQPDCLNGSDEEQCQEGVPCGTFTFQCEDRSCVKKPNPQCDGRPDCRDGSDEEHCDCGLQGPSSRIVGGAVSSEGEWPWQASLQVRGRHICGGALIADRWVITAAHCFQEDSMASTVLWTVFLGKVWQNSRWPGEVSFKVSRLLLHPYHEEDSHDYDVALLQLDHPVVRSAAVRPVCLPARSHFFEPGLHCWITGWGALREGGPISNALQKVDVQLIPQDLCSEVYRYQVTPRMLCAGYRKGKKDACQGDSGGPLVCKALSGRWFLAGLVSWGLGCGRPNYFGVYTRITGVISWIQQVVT

[2] = molecular target: T2, Suppressor of tumorigenicity 14 protein (Homo sapiens, UniProt Q9Y5Y6); test: Binding affinity to recombinant human Matriptase using Boc-QAR-AMC as substrate assessed as inhibition constant by fluorescence based analysis
T2 sequence (Q9Y5Y6 whole entry): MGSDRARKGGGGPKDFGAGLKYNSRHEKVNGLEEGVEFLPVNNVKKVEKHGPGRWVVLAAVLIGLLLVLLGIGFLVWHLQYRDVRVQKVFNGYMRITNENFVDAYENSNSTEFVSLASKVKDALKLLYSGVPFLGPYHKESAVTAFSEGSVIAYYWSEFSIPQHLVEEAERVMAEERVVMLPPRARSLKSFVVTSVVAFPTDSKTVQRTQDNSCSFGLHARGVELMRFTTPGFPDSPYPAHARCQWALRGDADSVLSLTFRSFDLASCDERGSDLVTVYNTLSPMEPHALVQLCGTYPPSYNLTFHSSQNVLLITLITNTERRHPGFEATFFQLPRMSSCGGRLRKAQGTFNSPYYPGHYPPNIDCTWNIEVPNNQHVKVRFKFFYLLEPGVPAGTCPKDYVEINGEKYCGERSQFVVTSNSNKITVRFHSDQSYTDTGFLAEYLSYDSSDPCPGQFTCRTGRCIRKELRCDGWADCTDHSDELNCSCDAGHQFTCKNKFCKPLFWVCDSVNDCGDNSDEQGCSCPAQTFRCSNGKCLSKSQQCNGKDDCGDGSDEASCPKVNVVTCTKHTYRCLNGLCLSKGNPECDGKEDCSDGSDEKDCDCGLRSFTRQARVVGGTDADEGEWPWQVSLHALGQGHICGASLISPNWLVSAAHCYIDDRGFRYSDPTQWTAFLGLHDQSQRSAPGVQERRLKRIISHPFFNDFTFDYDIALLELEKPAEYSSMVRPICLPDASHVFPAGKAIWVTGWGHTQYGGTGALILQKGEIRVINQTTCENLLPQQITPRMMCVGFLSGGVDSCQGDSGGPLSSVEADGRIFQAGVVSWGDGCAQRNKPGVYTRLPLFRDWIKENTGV

Homo sapiens [3] = species: Homo sapiens; test: Selectivity index, ratio of Ki for binding affinity to recombinant human Matriptase using Boc-QAR-AMC as substrate assessed as inhibition constant by fluorescence based analysis to Ki for binding affinity to recombinant human TMPRSS6 using Boc-QAR-AMC as substrate assessed as inhibition constant by fluorescence based analysis
[4] = molecular target: T3, Transmembrane protease serine 6 (Homo sapiens) (UniProt Q8IU80); test: Inhibition of recombinant human TMPRSS6 at 100 nM by Michaelis-Menten analysis relative to control
T3 sequence (whole entry): T1 sequence (Q8IU80 whole entry)

[5] = molecular target: T4, Suppressor of tumorigenicity 14 protein (Homo sapiens) (UniProt Q9Y5Y6); test: Inhibition of recombinant human Matriptase at 100 nM by Michaelis-Menten analysis relative to control
T4 sequence (whole entry): T2 sequence (Q9Y5Y6 whole entry)

[6] = Cytotoxicity against HEK cells assessed as reduction in cell viability measured for 24 hrs by celltiter-glo 2.0 assay; type: toxicity, cell-based; settings: human
[7] = molecular target: T2, Suppressor of tumorigenicity 14 protein; test: Mixed inhibition of recombinant human Matriptase using Boc-QAR-AMC as substrate assessed as inhibition constant by fluorescence based analysis
[8] = molecular target: T1, Transmembrane protease serine 6; test: Competitive tight binding inhibition of recombinant human TMPRSS6 using Boc-QAR-AMC as substrate assessed as inhibition constant by fluorescence based analysis
Homo sapiens [9] = species: Homo sapiens; test: Selectivity index, ratio of Ki for mixed inhibition of recombinant human Matriptase using Boc-QAR-AMC as substrate assessed as inhibition constant by fluorescence based analysis to Ki for competitive tight binding inhibition of recombinant human TMPRSS6 using Boc-QAR-AMC as substrate assessed as inhibition constant by fluorescence based analysis
Prothrombin = Prothrombin (Homo sapiens, UniProt P00734); test: Inhibition of recombinant human thrombin using Boc-QAR-AMC as substrate assessed as inhibition constant by fluorescence based analysis
Coagulation factor X = Coagulation factor X (Homo sapiens, UniProt P00742); test: Inhibition of recombinant human FXA using Boc-QAR-AMC as substrate assessed as inhibition constant by fluorescence based analysis
Chain of Coagulation factor X (P00742 41-179 limits assumed): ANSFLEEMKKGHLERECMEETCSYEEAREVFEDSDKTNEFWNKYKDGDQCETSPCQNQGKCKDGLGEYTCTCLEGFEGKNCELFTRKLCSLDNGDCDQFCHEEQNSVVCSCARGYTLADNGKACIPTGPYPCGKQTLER
Chain of Coagulation factor X (P00742 235-488 limits assumed): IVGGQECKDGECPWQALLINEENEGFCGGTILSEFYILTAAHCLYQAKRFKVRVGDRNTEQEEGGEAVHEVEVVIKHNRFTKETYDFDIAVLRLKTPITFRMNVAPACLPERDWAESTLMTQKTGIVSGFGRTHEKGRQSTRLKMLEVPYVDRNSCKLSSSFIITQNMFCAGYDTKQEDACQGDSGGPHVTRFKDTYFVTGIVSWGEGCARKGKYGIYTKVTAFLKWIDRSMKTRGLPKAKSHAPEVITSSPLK

Furin = Furin (Homo sapiens, UniProt P09958); test: Inhibition of recombinant human furin using Boc-RVRR-AMC as substrate assessed as inhibition constant by fluorescence based analysis
Chain of Furin (P09958 whole entry): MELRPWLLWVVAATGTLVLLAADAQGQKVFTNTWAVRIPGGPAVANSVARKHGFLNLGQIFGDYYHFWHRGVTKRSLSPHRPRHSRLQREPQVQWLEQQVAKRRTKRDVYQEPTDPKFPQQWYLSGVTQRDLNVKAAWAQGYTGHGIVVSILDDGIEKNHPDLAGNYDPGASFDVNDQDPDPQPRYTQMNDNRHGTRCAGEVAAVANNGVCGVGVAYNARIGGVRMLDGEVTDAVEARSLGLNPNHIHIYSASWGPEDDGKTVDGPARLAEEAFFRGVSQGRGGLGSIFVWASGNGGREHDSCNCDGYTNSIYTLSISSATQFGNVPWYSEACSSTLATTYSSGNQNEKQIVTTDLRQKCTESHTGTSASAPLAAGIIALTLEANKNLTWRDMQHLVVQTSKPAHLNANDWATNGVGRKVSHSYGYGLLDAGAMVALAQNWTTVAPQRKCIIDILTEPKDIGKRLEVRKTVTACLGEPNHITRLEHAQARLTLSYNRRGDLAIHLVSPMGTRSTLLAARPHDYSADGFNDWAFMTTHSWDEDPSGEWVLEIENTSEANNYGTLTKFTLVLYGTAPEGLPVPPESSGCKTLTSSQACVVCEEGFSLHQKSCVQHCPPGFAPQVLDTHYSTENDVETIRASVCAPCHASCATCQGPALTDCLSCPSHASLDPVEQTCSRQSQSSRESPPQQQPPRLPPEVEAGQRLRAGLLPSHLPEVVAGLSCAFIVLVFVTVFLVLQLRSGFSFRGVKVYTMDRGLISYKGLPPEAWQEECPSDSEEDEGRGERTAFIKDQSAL

[10] = molecular target: T1, Transmembrane protease serine 6; test: Inhibition of human TMPRSS6 transfected in HEK293SL cells using Boc-QAR-AMC as substrate measured for 24 hrs; type: cell-based
[11] = molecular target: T2, Suppressor of tumorigenicity 14 protein; test: Inhibition of human Matriptase transfected in HEK293SL cells using Boc-QAR-AMC as substrate measured for 24 hrs; type: cell-based
Homo sapiens [12] = species: Homo sapiens; test: Selectivity index, ratio of IC50 for inhibition of human Matriptase transfected in HEK293SL cells using Boc-QAR-AMC as substrate to IC50 for inhibition of human TMPRSS6 transfected in HEK293SL cells using Boc-QAR-AMC as substrate; type: cell-based
[13] = Solubility of compound in PBS at pH 7.4 measured for 90 mins by UPLC analysis; type: physicochemical; settings: buffer, pH 7.4, 1.5 h
[14] = Stability in Sprague-Dawley rat plasma assessed as parent compound remaining at 24 hrs by UPLC-MS analysis; type: ADME, cell-free
[15] = Metabolic stability in Sprague-Dawley rat microsome assessed as half life measured for 120 mins in presence of NADPH by UPLC-MS analysis; type: ADME; settings: microsomes, 2 h
[16] = Metabolic stability in Sprague-Dawley rat microsome assessed as intrinsic clearance measured for 120 mins in presence of NADPH by UPLC-MS analysis; type: ADME; settings: microsomes, 2 h
[17] = Apparent Permeability of compound in PBS buffer at pH 7.4 incubated for 17 hrs by PAMPA assay; type: ADME; settings: pH 7.4, 17 h

SMILES | Ki [1] [nM] | Ki [2] [nM] | Ratio Ki (Homo sapiens [3]) | also measured
N=C(N)NCCC[C@H](NC(=O)[C@H](CCc1ccccc1)NC(=O)[C@H](Cc1cscn1)NC(=O)CCc1ccccc1)C(=O)c1nc2ccccc2s1 | 2.2 | 3.3 | 1.5 | –
N=C(N)NCCC[C@H](NC(=O)[C@@H](NC(=O)[C@H](Cc1cscn1)NC(=O)CCc1ccccc1)c1ccccc1)C(=O)c1nc2ccccc2s1 | 12.5 | 33.6 | 2.6 | –
N=C(N)NCCC[C@H](NC(=O)[C@H](Cc1ccc(C(=O)c2ccccc2)cc1)NC(=O)[C@H](Cc1cscn1)NC(=O)CCc1ccccc1)C(=O)c1nc2ccccc2s1 | – | – | – | inhibition [4]: inactive; inhibition [5]: inactive
CC[C@H](NC(=O)[C@H](Cc1cscn1)NC(=O)CCc1ccccc1)C(=O)N[C@@H](CCCNC(=N)N)C(=O)c1nc2ccccc2s1 | – | – | – | inhibition [4]: 20%; inhibition [5]: 20%
N=C(N)NCCC[C@H](NC(=O)[C@H](Cc1cccc2ccccc12)NC(=O)[C@H](Cc1cscn1)NC(=O)CCc1ccccc1)C(=O)c1nc2ccccc2s1 | 3.7 | 45.3 | 12 | Activity [6]: Non-Toxic
CC(C)(C)C[C@H](NC(=O)[C@H](Cc1cscn1)NC(=O)CCc1ccccc1)C(=O)N[C@@H](CCCNC(=N)N)C(=O)c1nc2ccccc2s1 | 4.6 | 50.8 | 11 | –
CC[C@@H](C)[C@H](NC(=O)[C@H](Cc1cscn1)NC(=O)CCc1ccccc1)C(=O)N[C@@H](CCCNC(=N)N)C(=O)c1nc2ccccc2s1 | 1.4 | 8.8 | 6.3 | –
CC(C)C[C@H](NC(=O)[C@H](Cc1cscn1)NC(=O)CCc1ccccc1)C(=O)N[C@@H](CCCNC(=N)N)C(=O)c1nc2ccccc2s1 | 1.5 | 5 | 3.3 | –
N=C(N)NCCC[C@H](NC(=O)[C@H](CC1CCCCC1)NC(=O)[C@H](Cc1cscn1)NC(=O)CCc1ccccc1)C(=O)c1nc2ccccc2s1 | 3.9 | 9.1 | 2.3 | –
N=C(N)NCCC[C@H](NC(=O)[C@H](CCC1CCCCC1)NC(=O)[C@H](Cc1cscn1)NC(=O)CCc1ccccc1)C(=O)c1nc2ccccc2s1 | 8.3 | 12.3 | 1.5 | –
N=C(N)NCCC[C@H](NC(=O)[C@H](Cc1ccc(OCc2ccccc2)cc1)NC(=O)[C@H](Cc1cscn1)NC(=O)CCc1ccccc1)C(=O)c1nc2ccccc2s1 | 5.6 | 26.8 | 4.8 | –
CCC[C@H](NC(=O)[C@H](Cc1cscn1)NC(=O)CCc1ccccc1)C(=O)N[C@@H](CCCNC(=N)N)C(=O)c1nc2ccccc2s1 | – | – | – | inhibition [4]: 20%; inhibition [5]: 20%
CCCC[C@H](NC(=O)[C@H](Cc1cscn1)NC(=O)CCc1ccccc1)C(=O)N[C@@H](CCCNC(=N)N)C(=O)c1nc2ccccc2s1 | – | – | – | inhibition [4]: 20%; inhibition [5]: 20%
CC[C@H](C)[C@H](NC(=O)[C@H](Cc1cscn1)NC(=O)CCc1ccccc1)C(=O)N[C@@H](CCCNC(=N)N)C(=O)c1nc2ccccc2s1 | 1.2 | 11.3 | 9.4 | –
N=C(N)NCCC[C@H](NC(=O)[C@@H](NC(=O)[C@H](Cc1cscn1)NC(=O)CCc1ccccc1)C1CCCCC1)C(=O)c1nc2ccccc2s1 | 3.4 | 99.2 | 29 | Ki [7]: 100 nM; Ki [8]: 5.3 nM; Ratio Ki (Homo sapiens [9]): 19; Ki (Prothrombin): 120 nM; Ki (Coagulation factor X): > 10000 nM; Ki (Furin): > 10000 nM; Activity [6]: Non-Toxic; IC50 [10]: 22 nM; IC50 [11]: 352 nM; Ratio IC50 (Homo sapiens [12]): 16; solubility [13]: 158 µM (≈ 113 µg/mL); Stability [14]: 65%; t1/2 [15]: > 2 h; CLH [16]: 1.12 µL/min/mg; Papp [17]: 0.017 10^-6 cm/s
N=C(N)NCCC[C@H](NC(=O)[C@H](Cc1ccccc1)NC(=O)[C@H](Cc1cscn1)NC(=O)CCc1ccccc1)C(=O)c1nc2ccccc2s1 | 1.4 | 4.1 | 2.9 | –
N=C(N)NCCC[C@H](NC(=O)[C@H](CC12CC3CC(CC(C3)C1)C2)NC(=O)[C@H](Cc1cscn1)NC(=O)CCc1ccccc1)C(=O)c1nc2ccccc2s1 | – | – | – | inhibition [4]: inactive; inhibition [5]: inactive
N=C(N)NCCC[C@H](NC(=O)[C@H](Cc1ccc2ccccc2c1)NC(=O)[C@H](Cc1cscn1)NC(=O)CCc1ccccc1)C(=O)c1nc2ccccc2s1 | 7.9 | 53 | 6.7 | –
